Tests used:
HSB-2 cells = assay: Inhibition of HSB-2 leukemic cell line proliferation (WST-1); format: cell-based, human; settings: cytotoxicity on HSB-2 cells, two days incubation, WST-1 read-out
How it was run: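 HSB-2 human ALL cells, 50000/well in RPMI-1640 + 10% FCS, exposed to compounds 2 days at 37 °C, then WST-1 2 h, OD 450 nm. Proliferation scaled between untreated (max) and Triton X100 (min) controls; IC50 from ≥4-point curves, each point mean of ≥2 experiments.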

HL-60 cells = assay: Inhibition of HL-60 leukemic cell line proliferation (WST-1); format: cell-based, human; settings: cytotoxicity on HL-60 cells, two days incubation, WST-1 read-out
Method: HL-60 cell line, a human promyelocytic leukemia (ATCC; CCL-240) cell line, was grown in RPMI-1640 medium (Lonza, Belgium) supplemented with 10% fetal calf serum (Hyclone, US) and antibiotics. Exponential growing phase cells were seed in flat bottom 96-well microplates (TTP, Switzerland) at 50000 cells per well in 220 μl of medium with compounds (in different concentrations) and incubated for two days at 37° C., 5% CO2. After incubation, 100 μl of supernatant were removed and 10 μl of WST-1 (Roche, Switzerland) were added. After 2 hour incubation at 37° C., 5% CO2, optical densities were measured at 450 nm. Proliferation is calculated with respect of control points (no compound and treatment with Triton X100 to have maximum and minimum proliferation data). The IC50 was determined from a graph with at least four points, each derived from the mean of at least 2 experiments. […] The results are shown in Table 2 for a number of compounds.

LNCaP cells = assay: Inhibition of LNCaP prostate carcinoma cell line proliferation (WST-1); format: cell-based; settings: Homo sapiens, 48 h; cytotoxicity on LNCaP cells, two days incubation, WST-1 read-out
Method: LNCaP cell line, a prostate carcinoma cell line, was grown in RPMI-1640 medium (Lonza, Belgium) supplemented with 10% fetal calf serum (Hyclone, US) and antibiotics. Exponential growing phase cells were seed in flat bottom 96-well microplates (TTP, Switzerland) at 10000 cells per well in 200 μl of medium. The day after, 20 μl of compounds (in different concentrations) were added and incubated for two days at 37° C., 5% CO2. After incubation, 100 μl of supernatant were removed and 10 μl of WST-1 (Roche, Switzerland) were added. After 2 hour incubation at 37° C., 5% CO2, optical densities were measured at 450 nm. Proliferation is calculated with respect of control points (no compound and treatment with Triton X100 to have maximum and minimum proliferation data). The IC50 was determined from a graph with at least four points, each derived from the mean of at least 2 experiments. […] The results are shown in Table 3 for a number of compounds.

hu EOL-1 leukemia = settings: Example 222 p.o. once daily, cyclophosphamide once i.p.
Method: The test compound (Example 222) was dissolved in DMSO (5% final concentration) and further solubilised in 0.5% Tween 80 in 1% methylcellulose. The resulting suspension was warmed for 10 minutes to 37° C. in an ultrasound water bath to obtain a homogeneous formulation for oral administration. At day 0, 24 male NSG mice received a s.c. inoculum of 10^7 EOL-1 cells taken from in vitro culture and mixed with 50% matrigel. At day 10 tumours were palpable, mice were randomized into three treatment groups and therapy initiated. The test compound (Example 222) and the vehicle were administered orally (p.o.) once daily until the end of the experiment. Cyclophosphamide was administered only once intraperitoneally (i.p.).

Cc1cccc(OCC(=O)N2CCN(c3nc(N)nc4sc(-c5cccnc5)nc34)CC2)c1 [Example 275, 1-(4-(5-amino-2-(pyridin-3-yl)thiazolo[5,4-d]pyrimidin-7-yl)piperazin-1-yl)-2-(m-tolyloxy)ethanone]
IC50 (HSB-2 cells; Homo sapiens, HSB2, 48 h): 0.07 µM | IC50 (HL-60 cells; Homo sapiens, 48 h): 0.05 µM | IC50 (LNCaP cells): 1.09 µM

Cc1cccc(NC(=O)N2CCN(c3nc(N)nc4sc(-c5cccnc5)nc34)CC2)c1 [Example 276, 4-(5-amino-2-(pyridin-3-yl)thiazolo[5,4-d]pyrimidin-7-yl)-N-m-tolylpiperazine-1-carboxamide]
IC50 (HSB-2 cells; Homo sapiens, HSB2, 48 h): 0.05 µM | IC50 (HL-60 cells; Homo sapiens, 48 h): 0.06 µM | IC50 (LNCaP cells): 3.05 µM

Nc1nc(N2CCN(C(=O)COc3ccc(Cl)cc3)CC2)c2nc(-c3cccnc3)sc2n1 [Example 121a, 5-amino-7-[4-(4-chlorophenoxyacetyl)piperazin-1-yl]-2-(pyridine-3-yl)thiazolo[5,4-d]pyrimidine]
IC50 (HSB-2 cells; Homo sapiens, HSB2, 48 h): 0.2 µM | IC50 (HL-60 cells; Homo sapiens, 48 h): 0.23 µM | IC50 (LNCaP cells): 48 µM

COc1ccc(OCC(=O)N2CCN(c3nc(N)nc4sc(-c5cccnc5)nc34)CC2)cc1 [Example 271, 1-(4-(5-amino-2-(pyridin-3-yl)thiazolo[5,4-d]pyrimidin-7-yl)piperazin-1-yl)-2-(4-methoxyphenoxy)ethanone]
IC50 (HSB-2 cells; Homo sapiens, HSB2, 48 h): 0.06 µM | IC50 (HL-60 cells; Homo sapiens, 48 h): 0.1 µM | IC50 (LNCaP cells): > 100 µM

Nc1nc(N2CCN(C(=O)Nc3ccc(Cl)cc3)CC2)c2cc(-c3ccccc3)sc2n1 [Example 331, 4-(2-amino-6-phenylthieno[2,3-d]pyrimidin-4-yl)-N-(4-chlorophenyl)piperazine-1-carboxamide]
IC50 (HSB-2 cells; Homo sapiens, HSB2, 48 h): > 10 µM | IC50 (HL-60 cells; Homo sapiens, 48 h): > 10 µM

CSc1nc2c(N3CCN(C(=O)COc4ccc(Cl)cc4)CC3)nc(N)nc2n1C [Example 428, 1-(4-(2-amino-9-methyl-8-(methylthio)-9H-purin-6-yl)piperazin-1-yl)-2-(4-chlorophenoxy)ethanone]
IC50 (HSB-2 cells; Homo sapiens, HSB2, 48 h): 0.75 µM | IC50 (HL-60 cells; Homo sapiens, 48 h): 1.59 µM

Nc1nc(N2CCN(C(=O)COc3ccc(Cl)cc3)CC2)c2nc(-c3ccc(Cl)cc3)sc2n1 [Example 123, 5-amino-7-[4-(4-chlorophenoxyacetyl)piperazin-1-yl]-2-(4-chlorophenyl)thiazolo[5,4-d]pyrimidine]
IC50 (HSB-2 cells; Homo sapiens, HSB2, 48 h): 3.73 µM | IC50 (HL-60 cells; Homo sapiens, 48 h): 1.2 µM

Nc1nc(N2CCN(C(=O)COc3ccc(Br)cc3)CC2)c2nc(-c3ccc(F)cc3)sc2n1 [Example 128, 5-amino-2-(4-fluorophenyl)-7-(4-[2-(4-bromophenoxy)acetyl]-piperazin-1-yl)-thiazolo[5,4-d]pyrimidine]
IC50 (HSB-2 cells): 5.62 µM | IC50 (HL-60 cells; Homo sapiens, 48 h): 6.47 µM

Nc1nc(N2CCN(C(=O)CCc3ccc(F)cc3)CC2)c2nc(-c3ccc(F)cc3)sc2n1 [Example 236, 1-(4-(5-amino-2-(4-fluorophenyl)thiazolo[5,4-d]pyrimidin-7-yl)piperazin-1-yl)-3-(4-fluorophenyl)propan-1-one]
IC50 (HSB-2 cells; Homo sapiens, HSB2, 48 h): 5.57 µM | IC50 (HL-60 cells; Homo sapiens, 48 h): 8.2 µM

Nc1nc(N2CCN(C(=O)COc3ccc(Cl)cc3)CC2)c2nc(-c3ccc(Cl)c(Cl)c3)sc2n1 [Example 116, 5-amino-7-[4-(4-chlorophenoxyacetyl)piperazin-1-yl]-2-(3,4-dichlorophenyl)thiazolo[5,4-d]pyrimidine]
IC50 (HSB-2 cells; Homo sapiens, HSB2, 48 h): 6.01 µM | IC50 (HL-60 cells; Homo sapiens, 48 h): 8.59 µM

Nc1nc(N2CCN(C(=O)COc3ccc(Cl)cc3)CC2)c2nc(-c3ccc[n+]([O-])c3)sc2n1 [Example 121b, 5-amino-7-[4-(4-chlorophenoxyacetyl)piperazin-1-yl]-2-(N-oxopyridine-3-yl)thiazolo[5,4-d]pyrimidine]
IC50 (HSB-2 cells): 6.19 µM | IC50 (HL-60 cells): 4.89 µM

Nc1nc(N2CCN(CC(=O)Nc3cccnc3)CC2)c2nc(-c3ccc(F)cc3)[nH]c2n1 [Example 412]
IC50 (HSB-2 cells): > 10 µM | IC50 (HL-60 cells): > 10 µM

Nc1nc(N2CCCN(C(=O)COc3ccc(Cl)cc3)CC2)c2nc(-c3ccc(F)cc3)[nH]c2n1 [Example 421, 1-(4-(2-amino-8-(4-fluorophenyl)-9H-purin-6-yl)-1,4-diazepan-1-yl)-2-(4-chlorophenoxy)ethanone]
IC50 (HSB-2 cells; Homo sapiens, HSB2, 48 h): > 10 µM | IC50 (HL-60 cells; Homo sapiens, 48 h): > 10 µM

Nc1nc(N2CCN(C(=O)COc3ccc(Cl)cc3)CC2)c2nc(C3(c4ccc(Cl)cc4)CC3)sc2n1 [Example 117, 5-amino-7-[4-(4-chlorophenoxyacetyl)piperazin-1-yl]-2-(1-(4-chlorophenyl)cyclopropyl)thiazolo[5,4-d]pyrimidine]
IC50 (HSB-2 cells; Homo sapiens, HSB2, 48 h): 6.28 µM | IC50 (HL-60 cells; Homo sapiens, 48 h): > 10 µM

O=P1(N(CCCl)CCCl)NCCCO1 (stereo not drawn) [Cyclophosphamide, reference compound]
body weight loss (hu EOL-1 leukemia; EOL-1 xenograft in NSG mice): 6% | tolerability (hu EOL-1 leukemia; EOL-1 xenograft in NSG mice): well tolerated | effect on tumour growth (tumour volume) relative to vehicle (hu EOL-1 leukemia; s.c. EOL-1 tumours in NSG mice, therapy from day 10 to day 21): highly significant (p<0.05) inhibition of tumour growth

Nc1nc(N2CCN(C(=O)COc3ccccc3)CC2)c2nc(CCc3ccc(F)cc3)sc2n1 [Example 134, 5-amino-2-[2-(4-fluorophenyl)ethyl]-7-(4-[2-phenoxyacetyl]piperazin-1-yl)-thiazolo[5,4-d]pyrimidine]
IC50 (HSB-2 cells; Homo sapiens, HSB2, 48 h): > 10 µM | IC50 (HL-60 cells; Homo sapiens, 48 h): > 10 µM

Nc1nc(N2CCN(C(=O)COc3ccc(Cl)cc3)CC2)c2nc(-c3ccc(Cl)cc3)[nH]c2n1 [Example 392, 1-(4-(2-amino-8-(4-chlorophenyl)-9H-purin-6-yl)piperazin-1-yl)-2-(4-chlorophenoxy)ethanone]
IC50 (HSB-2 cells; Homo sapiens, HSB2, 48 h): 2.23 µM | IC50 (HL-60 cells; Homo sapiens, 48 h): 3.14 µM

CC(C)(Oc1ccc(Cl)cc1)C(=O)N1CCN(c2nc(N)nc3sc(-c4cccnc4)nc23)CC1 [Example 274, 1-(4-(5-amino-2-(pyridin-3-yl)thiazolo[5,4-d]pyrimidin-7-yl)piperazin-1-yl)-2-(4-chlorophenoxy)-2-methylpropan-1-one]
IC50 (LNCaP cells): 18.2 µM

CCC(c1ccc(F)cc1)c1nc2c(N3CCN(C(=O)COc4ccc(Cl)cc4)CC3)nc(N)nc2s1 (stereo not drawn) [Example 150, 5-amino-2-[1-(4-fluorophenyl)propyl]-7-(4-[2-(4-chlorophenoxy)acetyl]piperazin-1-yl)thiazolo[5,4-d]pyrimidine]
IC50 (HSB-2 cells; Homo sapiens, HSB2, 48 h): > 10 µM | IC50 (HL-60 cells; Homo sapiens, 48 h): > 10 µM

Nc1nc(N2CCN(c3ccc(Cl)cc3)CC2)c2nc(-c3ccc(F)cc3)[nH]c2n1 [Example 414, 6-(4-(4-chlorophenyl)piperazin-1-yl)-8-(4-fluorophenyl)-9H-purin-2-amine]
IC50 (HSB-2 cells; Homo sapiens, HSB2, 48 h): > 10 µM | IC50 (HL-60 cells; Homo sapiens, 48 h): > 10 µM

COCc1nc2c(N3CCN(C(=O)COc4ccc(Cl)cc4)CC3)nc(N)nc2o1 [Example 186, 5-amino-7-[4-(4-chlorophenoxyacetyl)piperazin-1-yl]-2-methoxylmethyloxazolo[5,4-d]pyrimidine]
IC50 (HSB-2 cells; Homo sapiens, HSB2, 48 h): > 10 µM | IC50 (HL-60 cells; Homo sapiens, 48 h): > 10 µM

Cc1cccc(OCC(=O)N2CCN(c3nc(N)nc4sc(-c5ccc(F)cc5)nc34)CC2)c1 [Example 211, 1-(4-(5-amino-2-(4-fluorophenyl)thiazolo[5,4-d]pyrimidin-7-yl)piperazin-1-yl)-2-(m-tolyloxy)ethanone]
IC50 (HSB-2 cells; Homo sapiens, HSB2, 48 h): 0.47 µM | IC50 (HL-60 cells; Homo sapiens, 48 h): 0.69 µM

Cc1cccc(OCC(=O)N2CCN(c3nc(N)nc4sc(-c5ccco5)nc34)CC2)c1 [Example 210, 1-(4-(5-amino-2-(furan-2-yl)thiazolo[5,4-d]pyrimidin-7-yl)piperazin-1-yl)-2-(m-tolyloxy)ethanone]
IC50 (HSB-2 cells; Homo sapiens, HSB2, 48 h): 0.48 µM | IC50 (HL-60 cells; Homo sapiens, 48 h): 0.39 µM

Nc1nc(N2CCN(C(=O)COc3ccc(Cl)cc3)CC2)c2nc(C3CCCCC3)sc2n1 [Example 120, 5-amino-7-[4-(4-chlorophenoxyacetyl)piperazin-1-yl]-2-cyclohexylthiazolo[5,4-d]pyrimidine]
IC50 (HSB-2 cells; Homo sapiens, HSB2, 48 h): 4.87 µM | IC50 (HL-60 cells; Homo sapiens, 48 h): > 10 µM

Nc1nc(N2CCN(C(=O)COc3ccccc3)CC2)c2cc(-c3ccccc3)sc2n1 [Example 332, 1-(4-(2-amino-6-phenylthieno[2,3d]pyrimidin-4-yl)piperazin-1-yl)-2-phenoxyethanone]
IC50 (HSB-2 cells): 5.5 µM | IC50 (HL-60 cells): > 10 µM

— patent US9573966B2, “Anti-cancer activity of novel bicyclic heterocycles” (Katholieke Universiteit Leuven, K.U.Leuven R&D, priority 2010, dated 2017)
